The NIST ThermoML archive (doi:10.1021/acs.jced.8b01075)
± gives the expanded uncertainty stated by the source.

Assay: molar heat capacity at saturation pressure
Conditions: Crystal, Small (less than 1 g) adiabatic calorimetry

[Al+3].[Al+3].[O-2].[O-2].[O-2] [aluminum oxide (Al2O3)]
Conditions	molar heat capacity [J/K/mol]
81.94 K	7.415 ± 0.11
84.02 K	7.956 ± 0.11
87.02 K	8.82 ± 0.11
90.02 K	9.678 ± 0.18
93.01 K	10.58 ± 0.19
96 K	11.53 ± 0.19
98.99 K	12.53 ± 0.19
101.97 K	13.54 ± 0.2
104.94 K	14.57 ± 0.2
107.93 K	15.61 ± 0.2
110.92 K	16.7 ± 0.21
113.92 K	17.8 ± 0.21
116.92 K	18.91 ± 0.21
119.93 K	20.06 ± 0.22
122.94 K	21.18 ± 0.22
125.95 K	22.36 ± 0.22
128.99 K	23.51 ± 0.23
132.02 K	24.71 ± 0.23
135.04 K	25.91 ± 0.24
138.07 K	27.14 ± 0.24
141.09 K	28.39 ± 0.24
144.13 K	29.63 ± 0.25
147.16 K	30.83 ± 0.25
150.2 K	32.05 ± 0.25
153.23 K	33.28 ± 0.26
156.27 K	34.49 ± 0.26
159.31 K	35.7 ± 0.27
162.35 K	36.9 ± 0.27
165.39 K	38.13 ± 0.27
168.44 K	39.32 ± 0.28
171.48 K	40.52 ± 0.28
174.52 K	41.67 ± 0.28
177.6 K	42.88 ± 0.29
180.64 K	44.01 ± 0.29
183.68 K	45.17 ± 0.3
186.72 K	46.24 ± 0.3
189.76 K	47.4 ± 0.3
192.8 K	48.56 ± 0.31
195.84 K	49.61 ± 0.31
198.88 K	50.65 ± 0.31
201.91 K	51.8 ± 0.32
204.95 K	52.77 ± 0.32
207.97 K	53.81 ± 0.32
211 K	54.84 ± 0.32
214.02 K	55.88 ± 0.33
217.04 K	56.95 ± 0.33
220.05 K	57.85 ± 0.33
223.06 K	58.88 ± 0.34
226.07 K	59.93 ± 0.34
229.07 K	60.93 ± 0.34
232.07 K	61.8 ± 0.35
235.06 K	62.67 ± 0.35
238.05 K	63.55 ± 0.35
241.03 K	64.4 ± 0.35
244.01 K	65.33 ± 0.36
246.98 K	66.26 ± 0.36
249.94 K	67.1 ± 0.36
252.9 K	67.9 ± 0.37
255.85 K	68.71 ± 0.37
258.78 K	69.49 ± 0.37
261.71 K	70.19 ± 0.37
264.63 K	71.03 ± 0.38
267.53 K	71.84 ± 0.38
270.43 K	72.53 ± 0.38

O=C(O)c1ccccc1 [benzoic acid]
Conditions	molar heat capacity [J/K/mol]
4.54 K	0.238 ± 0.019
4.75 K	0.256 ± 0.019
4.88 K	0.271 ± 0.019
5.02 K	0.296 ± 0.02
5.16 K	0.31 ± 0.02
5.29 K	0.316 ± 0.02
5.42 K	0.327 ± 0.02
5.53 K	0.343 ± 0.02
5.64 K	0.358 ± 0.021
5.75 K	0.372 ± 0.021
5.85 K	0.388 ± 0.021
5.95 K	0.419 ± 0.022
6.07 K	0.438 ± 0.022
6.22 K	0.468 ± 0.022
6.38 K	0.502 ± 0.023
6.53 K	0.521 ± 0.024
6.7 K	0.571 ± 0.025
6.84 K	0.618 ± 0.026
6.99 K	0.662 ± 0.026
7.14 K	0.7 ± 0.027
7.29 K	0.731 ± 0.028
7.43 K	0.778 ± 0.029
7.57 K	0.823 ± 0.03
7.72 K	0.893 ± 0.031
7.86 K	0.954 ± 0.033
8.01 K	0.978 ± 0.033
8.16 K	1.053 ± 0.035
8.31 K	1.116 ± 0.036
8.46 K	1.163 ± 0.037
8.6 K	1.263 ± 0.039
8.76 K	1.329 ± 0.041
8.91 K	1.384 ± 0.042
9.07 K	1.472 ± 0.044
9.22 K	1.512 ± 0.045
9.38 K	1.58 ± 0.046
9.53 K	1.649 ± 0.048
9.69 K	1.725 ± 0.049
9.84 K	1.858 ± 0.052
10 K	1.902 ± 0.053
10.21 K	2.036 ± 0.056
10.49 K	2.207 ± 0.06
10.76 K	2.354 ± 0.063
11.04 K	2.56 ± 0.068
11.32 K	2.751 ± 0.072
11.6 K	2.956 ± 0.076
11.88 K	3.123 ± 0.08
12.17 K	3.346 ± 0.085
12.45 K	3.529 ± 0.089
12.75 K	3.819 ± 0.095
13.03 K	4.037 ± 0.1
13.33 K	4.28 ± 0.1
13.62 K	4.532 ± 0.11
13.91 K	4.755 ± 0.12
14.01 K	4.933 ± 0.12
14.31 K	5.137 ± 0.12
14.6 K	5.519 ± 0.13
14.9 K	5.794 ± 0.14
15.19 K	6.073 ± 0.14
15.49 K	6.356 ± 0.15
15.79 K	6.616 ± 0.15
16.09 K	6.911 ± 0.16
16.39 K	7.207 ± 0.17
16.7 K	7.541 ± 0.17
17 K	7.836 ± 0.18
17.3 K	8.091 ± 0.19
17.6 K	8.409 ± 0.19
17.91 K	8.786 ± 0.2
18.21 K	9.095 ± 0.21
18.52 K	9.471 ± 0.21
18.83 K	9.71 ± 0.22
19.13 K	10.14 ± 0.23
19.44 K	10.4 ± 0.23
19.58 K	10.55 ± 0.24
19.75 K	10.7 ± 0.24
19.89 K	10.86 ± 0.24
20.52 K	11.49 ± 0.26
21.41 K	12.5 ± 0.28
22.31 K	13.49 ± 0.3
23.22 K	14.56 ± 0.32
24.13 K	15.56 ± 0.34
25.05 K	16.55 ± 0.36
25.98 K	17.58 ± 0.38
26.92 K	18.63 ± 0.4
27.86 K	19.67 ± 0.42
28.81 K	20.7 ± 0.44
29.76 K	21.73 ± 0.46
30.71 K	22.75 ± 0.19
31.67 K	23.72 ± 0.2
32.64 K	24.69 ± 0.2
33.6 K	25.68 ± 0.21
34.57 K	26.57 ± 0.21
35.56 K	27.57 ± 0.22
36.53 K	28.47 ± 0.22
37.51 K	29.44 ± 0.23
38.5 K	30.44 ± 0.24
39.89 K	31.71 ± 0.24
40.89 K	32.53 ± 0.25
41.89 K	33.31 ± 0.25
42.89 K	33.99 ± 0.26
43.89 K	34.84 ± 0.26
44.89 K	35.7 ± 0.27
45.89 K	36.42 ± 0.27
46.89 K	37.22 ± 0.28
47.9 K	38.04 ± 0.28
48.9 K	38.77 ± 0.28
49.91 K	39.47 ± 0.29
50.92 K	40.13 ± 0.29
51.94 K	40.84 ± 0.3
52.95 K	41.56 ± 0.3
53.97 K	42.16 ± 0.3
54.98 K	42.68 ± 0.31
56.02 K	43.44 ± 0.31
57.03 K	44.09 ± 0.32
58.06 K	44.66 ± 0.32
59.17 K	45.31 ± 0.32
60.19 K	45.98 ± 0.33
61.22 K	46.55 ± 0.33
62.24 K	47.19 ± 0.34
63.27 K	47.79 ± 0.34
64.3 K	48.32 ± 0.34
65.32 K	48.9 ± 0.35
66.35 K	49.45 ± 0.35
67.38 K	49.97 ± 0.35
68.41 K	50.43 ± 0.35
69.43 K	50.89 ± 0.36
71.27 K	51.74 ± 0.36
73.3 K	52.71 ± 0.37
75.33 K	53.69 ± 0.37
77.36 K	54.68 ± 0.38
78.78 K	55.18 ± 0.38
79.56 K	55.66 ± 0.39
81.07 K	56.41 ± 0.39
83.09 K	57.46 ± 0.4
85.1 K	58.18 ± 0.4
87.11 K	58.97 ± 0.41
89.11 K	59.73 ± 0.41
91.11 K	60.5 ± 0.44
93.12 K	61.27 ± 0.44
95.11 K	62.07 ± 0.44
97.11 K	62.81 ± 0.45
99.11 K	63.57 ± 0.45
101.6 K	64.59 ± 0.36
104.58 K	65.66 ± 0.36
107.58 K	66.69 ± 0.36
110.58 K	67.85 ± 0.37
113.59 K	69.03 ± 0.37
116.61 K	70.18 ± 0.37
119.62 K	71.3 ± 0.38
122.63 K	72.54 ± 0.38
125.65 K	73.61 ± 0.38
128.67 K	74.78 ± 0.39
131.69 K	75.96 ± 0.39
134.72 K	77.09 ± 0.39
137.76 K	78.23 ± 0.4
140.79 K	79.41 ± 0.4
143.83 K	80.49 ± 0.4
146.87 K	81.68 ± 0.41
149.91 K	82.93 ± 0.41
152.95 K	84.03 ± 0.42
156 K	85.17 ± 0.42
159.05 K	86.37 ± 0.42
162.09 K	87.59 ± 0.43
165.18 K	88.85 ± 0.43
168.23 K	90.02 ± 0.44
171.28 K	91.22 ± 0.44
174.33 K	92.46 ± 0.44
177.38 K	93.64 ± 0.45
180.44 K	94.8 ± 0.45
183.49 K	96.08 ± 0.46
186.54 K	97.26 ± 0.46
189.6 K	98.55 ± 0.46
192.66 K	99.83 ± 0.47
195.71 K	101 ± 0.5
198.77 K	102.3 ± 0.5
201.83 K	103.6 ± 0.5
204.89 K	104.9 ± 0.5
208.45 K	106.6 ± 0.5
212.52 K	108.2 ± 0.5
216.67 K	110.1 ± 0.5
220.76 K	111.7 ± 0.5
224.85 K	113.5 ± 0.5
228.95 K	115.3 ± 0.5
237.16 K	119 ± 0.5
241.28 K	120.8 ± 0.5
245.39 K	122.6 ± 0.5
249.52 K	124.4 ± 0.6
253.64 K	126.3 ± 0.6
257.77 K	128.1 ± 0.6
261.9 K	130 ± 0.6
266.04 K	132 ± 0.6
270.19 K	133.8 ± 0.6
274.34 K	135.7 ± 0.6
278.49 K	137.6 ± 0.6
282.77 K	139.8 ± 0.6
286.93 K	141.6 ± 0.6
291.09 K	143.5 ± 0.6
295.26 K	145.5 ± 0.6
299.42 K	147.4 ± 0.6
304.38 K	149.7 ± 0.6
310.53 K	152.6 ± 0.7
317.37 K	155.7 ± 0.7
324.19 K	158.8 ± 0.7
330.99 K	162 ± 0.7
